This is an account of results in patent publication US12030903B2, “Antiviral compounds” (Gilead Sciences, Inc., priority 2020, dated 2024).

Series [1] deals with Dengue 2, New Guinea strain (NGC). Briefly: DENV-2 moDC EC50 (qPCR of viral RNA in infected moDCs). In kind it is cell-based, New Guinea strain (NGC); human moDCs. The following applies: human moDCs infected with Dengue 2 NGC, MOI=0.1, 48 hours. The essentials:
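moDCs differentiated 7 days from CD14+ monocytes with GM-CSF/IL-4, infected with Vero-derived DENV-2 NGC at MOI 0.1 for 2 h at 37 °C, then plated in triplicate with graded compound doses (0.25% DMSO). At 48 h viral RNA quantified by duplex TaqMan qPCR against GAPDH; EC50 normalized to positive and no-compound controls.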
Background: Real-time PCR tracks product formation cycle by cycle.

A short description of series [2]: HEp-2 CC50 (cytotoxicity in uninfected HEp-2 cells). In kind it is cell-based. The following applies: human, CellTiter Glo. As for the experimental part: (§1) Instead, an uninfected cell mixture at the same density is added at 20 uL/well to plates containing prediluted compounds, also at 100 nL/sample. Assay plates are then incubated for 4 days followed by a cell viability test using the same CellTiter Glo reagent addition and measurement of luminescent readouts. Untreated cell and cells treated at 2 μM puromycin (Sigma, St. Louis, MO) serve as 100% and 0% cell viability control, respectively.
In general terms: ATP-based viability assays read luminescence as a measure of living cells.

The subject of series [3] is Dengue serotype 2 New Guinea C (NGC) strain. The series can be described thus: DENV-2 Huh-7 EC50 (qPCR of viral RNA in infected Huh7 cells). In kind it is cell-based. The note with it: MOI=0.1, 48 hours. Put shortly:
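Huh7 cells were infected 2 h at 37 °C with DENV-2 NGC at MOI 0.1, then plated with graded compound doses (0.25% DMSO) in triplicate for 48 h. Viral RNA was quantified by duplex TaqMan qPCR against GAPDH. EC50 was normalized to positive and no-compound controls.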

The subject of series [4] is RSV strain A2. The series can be described thus: RSV HEp-2 EC50 (infectious cytopathic cell protection assay). In kind it is cell-based, RSV strain A2; HEp-2 cells. The following applies: read-out: RSV Hep-2 EC50. The essentials: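 HEp-2 cells (50,000/mL) infected with titered RSV stock, added onto compound in 3-fold serial dilutions; 4 days at 37 °C. Cell viability read by CellTiter-Glo luminescence; percent inhibition of virus-induced cytopathic effect derived from remaining viability against 0% and 100% inhibition controls.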
On the technique in general: Protection from cytopathic effect is a common read-out in antiviral testing.

Series [5] is described as follows: Huh-7 CC50 (CellTiter Glo viability). The class given is cell-based, Human. The following applies: human, Huh7 hepatocarcinoma cells. Put shortly: (§2)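 Huh7 cells in 10% FCS DMEM plated at 1-2×10^4 per well in triplicate with graded compound doses, 0.25% DMSO throughout. Viability after 48 hours by CellTiter Glo luminescence, normalized to no-compound and no-cell controls; CC50 from curve fitting.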

A short description of series [6]: moDC CC50 (CellTiter Glo viability). The following applies: human, uninfected moDCs. In kind it is cell-based, Human.
In series [7] the test system is RSV A2. The series can be described thus: RSV NHBE EC50 (RSV A2 antiviral assay in NHBE cells). The following applies: human respiratory syncytial virus, 96 h; NHBE cells infected with RSV A2, 4 days, Cell-Titer Glo. In kind it is cell-based, RSV A2; normal human bronchial epithelial (NHBE) cells. The procedure: Example 88. RSV NHBE EC50
Normal human bronchial epithelial (NHBE) cells were purchased from Lonza (Walkersville, MD, Cat #CC-2540) and cultured in Bronchial Epithelial Growth Media (BEGM) (Lonza, Walkersville, MID, Cat 9 CC-3170). The cells were passaged 1-2 times per week to maintain<80% confluency. The NHBE cells were discarded after 6 passages in culture.
To conduct the RSV A2 antiviral assay, NHBE cells were plated in 96-well plates at a density of 7,500 cells per well in BEGM and allowed to attach overnight at 37° C. Following attachment, 100 μL of cell culture media was removed and 3-fold serially diluted compound was added using a Hewlett-Packard D300 Digital Dispenser. The final concentration of DMSO was normalized to 0.05%. Following compound addition, the NHBE cells were infected by the addition of 100 μL of RSV A2 at a titer of […] tissue culture infectious doses/mL in BEGM and then incubated at 37° C. for 4 days. The NHBE cells were then allowed to equilibrate to 25° C. and cell viability was determined by removing 100 μL of culture medium and adding 100 μL of Cell-Titer Glo viability reagent. The mixtures were incubated for 10 minutes at 25° C., and the luminescence signal was quantified on an Envision luminescence plate reader.

Series [8] has as its system uninfected HEp-2 cells. Briefly: HEp-2 CC50 (cytotoxicity in uninfected HEp-2 cells). The class given is cell-based. The following applies: 4 days, CellTiter Glo. The procedure:
as §1

Series [9] relates to Human hepatocarcinoma 7 (Huh7) cells. The series can be described thus: Huh-7 CC50 (CellTiter Glo viability). The class given is cell-based. The following applies: 48 hours. Put shortly: as §2
Series [10] has as its system Human monocyte-derived dendritic cells (moDCs). The series can be described thus: moDC CC50 (CellTiter Glo viability). In kind it is cell-based. The note with it: uninfected moDCs, 48 hours.
[11] abbreviates: Dengue virus, DENV2, Huh-7, Huh7 cells infected with Dengue serotype 2 NGC.
Where [12] appears, read: human respiratory syncytial virus, HEp-2, 96 h.
Setting [13] is: Huh7 cells infected with Dengue serotype 2 NGC.
Where [14] appears, read: HEp-2 cells infected with RSV A2, 4 days, Cell TiterGlo.

Where two headings read alike, the source gives them in different places.

The EC50 is the concentration needed to bring the measured effect to its halfway point. The CC50 is the concentration giving 50% cytotoxicity. Read a low CC50 as greater toxicity to the cells. In the case of `COC(=O)[C@H](C)NP(=O)(OC[C@@]1(CF)O[C@@H](c2ccc3c(N)ncnn23)[C@H](OC(=O)C(C)C)[C@@H]1OC(=O)C(C)C)Oc1ccccc1` (single isomer, unassigned) [Example 11], the EC50 stood at 380 nM in series [1] (Dengue virus), 586 nM in series [3] (setting [11]), 2040 nM in series [4] (setting [12]) and 367 nM in series [7]. Besides, in series [2], the CC50 at 4 days came to 12600 nM. The figures for the CC50 at 48 h in series [5] and in series [6] were over 18800 nM and 16100 nM, respectively.

With `CCC(CC)COC(=O)[C@H](C)N[P@](=O)(OC[C@@]1(CF)O[C@@H](c2ccc3c(N)ncnn23)[C@H](O)[C@@H]1O)Oc1ccccc1` [Example 1, 2-ethylbutyl ((S)-(((2R,3S,4R,5S)-5-(4-aminopyrrolo[2,1-f][1,2,4]triazin-7-yl)-2-(fluoromethyl)-3,4-dihydroxytetrahydrofuran-2-yl)methoxy)(phenoxy)phosphoryl)-L-alaninate], the EC50 turned out to be 117 nM in series [1] (Dengue virus), 151 nM in series [3] (setting [11]), 119 nM in [4] (setting [12]) and 595 nM in series [7]. Also, in [2], the CC50 at 4 days is over 50000 nM. The CC50 at 48 h was 18000 nM in series [5] and over 5890 nM in [6].

`CCC(=O)O[C@H]1[C@H](c2ccc3c(N)ncnn23)O[C@](CF)(COP(=O)(N[C@@H](C)C(=O)OC2CCCCC2)Oc2ccccc2)[C@H]1OC(=O)CC` (stereo partly drawn) [Example 16, (2R,3S,4S,5S)-5-(4-aminopyrrolo[2,1-f][1,2,4]triazin-7-yl)-2-((((((S)-1-(cyclohexyloxy)-1-oxopropan-2-yl)amino)(Phenoxy)phosphoryl)oxy)methyl)-2-(fluoromethyl)tetrahydrofuran-3,4-diyl dipropionate]: the figures for the EC50 in series [1], in series [3] (setting [13]) and in series [4] (setting [14]) were 214 nM, 736 nM and 1100 nM, respectively. Further, the CC50 is 33000 nM in series [8], 13400 nM in series [9] and 3800 nM in series [10].

Consider `CCOC(=O)[C@H](C)NP(=O)(OC[C@@]1(CF)O[C@@H](c2ccc3c(N)ncnn23)[C@H](OC(C)=O)[C@@H]1OC(C)=O)Oc1ccccc1` (stereo partly drawn) [Example 21, (2R,3S,4S,5S)-5-(4-aminopyrrolo[2,1-f][1,2,4]triazin-7-yl)-2-((((((S)-1-ethoxy-1-oxopropan-2-yl)amino)(phenoxy)phosphoryl)oxy)methyl)-2-(fluoromethyl)tetrahydrofuran-3,4-diyl diacetate], for which the EC50 turned out to be 1040 nM in series [1], 3060 nM in series [3] (setting [13]) and 1780 nM in [4] (setting [14]). Also, the CC50 was over 100000 nM in series [8], over 25000 nM in series [9] and over 17300 nM in series [10].

With `CCOC(=O)[C@H](C)NP(=O)(OC[C@@]1(CF)O[C@@H](c2ccc3c(N)ncnn23)[C@H](OC(=O)C(C)C)[C@@H]1OC(=O)C(C)C)Oc1ccccc1` (stereo partly drawn) [Example 24, (2R,3S,4S,5S)-5-(4-aminopyrrolo[2,1-f][1,2,4]triazin-7-yl)-2-((((((S)-1-ethoxy-1-oxopropan-2-yl)amino)(phenoxy)phosphoryl)oxy)methyl)-2-(fluoromethyl) tetrahydrofuran-3,4-diyl bis(2-methylpropanoate)], the EC50 in series [1] is 257 nM; in series [3] (setting [13]), 1560 nM; in series [4] (setting [14]), 1830 nM. Besides, the results for the CC50 in series [8], in series [9] and in series [10] were 16600 nM, 16000 nM and 18600 nM, respectively.

In the case of `Nc1ncnn2c([C@@H]3O[C@@](CO)(CF)[C@@H](O)[C@H]3O)ccc12` [Intermediate 5, (2R,3S,4R,5S)-5-(4-aminopyrrolo[2,1-f][1,2,4]triazin-7-yl)-2-(fluoromethyl)-2-(hydroxymethyl)tetrahydrofuran-3,4-diol], the CC50 at 4 days in [2] is over 50000 nM. The figures for the EC50 in series [4] (setting [12]) and in series [7] were over 50000 nM and over 4830 nM, respectively.
